Patent EP2711366A1, “Cationic triphenylamine derivatives activable by visible and Infra Red light for inducing and imaging apoptosis in cancer cells” (Institut Curie, priority 2012, dated 2014)
Like-named read-outs stand apart in the source and are kept apart here. Numbered stars: 1 amine (or outer) side, 2 acyl side, 3 side chain; on linkers, the order of the positions; unused ones are H or OH. Bridge positions count the residues as written; N and C are the ends. Square brackets hold non-standard residues; d marks the D form. Peptide text beside a SMILES is read from it. I, II: the chains in the order shown. Actinocin(9to1) = Cc1c2oc3c(C)ccc(C(=O)[*:1])c3nc-2c(C(=O)[*:2])c(N)c1=O; NMeV = CN[C@H](C(=O)O)C(C)C; Sar = CNCC(=O)O

Experiments:
[1] = 532 or 665-nm line laser sources; cited from earlier work
[2] = Dark toxicity (MTT assay, without illumination); type: cell-based; conditions: human; MCF-7 cells, tested in dark; read-out: TC50 (toxicity concentration 50%), dark toxicity
Procedure: (§1) Different experiments were conducted and described below: • MCF7 cells were treated with 2µM of TP2Py or TP3Bzim and exposed to illumination (Fig.9A); • HeLa cells were treated with 2µM of TP2Py or TP3Bzim and exposed to illumination (Fig.9B); • MCF7 cells were treated with TP2Py, 40 min illumination (black circles) or without illumination (white circles) (Fig.9C) • HeLa cells were treated with TP2Py [30 min illumination (black circles) or without illumination (white circles)] or TP3Bzim [15 min illumination (black triangles) or without illumination (white triangles)]
(§2) For each experiment, the source of excitation was a Mercury lamp (130W; 380-600nm) with an excitation filter centered at 452nm (± 45 nm), irradiance, 60mW/cm^2.
(§3) First, the experiment was calibrated by determining the time of illumination exposure which leads to the toxicity 50%, for a given concentration of TPA (2 µM) and for an irradiance of 60mW/cm^2. […] This characteristic time was then used for the plots shown in Fig. 9C and 9D which represent the cell viability as a function of TPA concentration (in HeLa and MCF-7 cells, respectively).

HeLa cells [3] = assay: Cytophototoxicity by MTT assay under illumination; type: cell-based; conditions: irradiance 60mW/cm^2
Procedure: as §1, §2, §3

living MCF-7 cells = assay: One-photon confocal fluorescence microscopy, photo-induced nuclear translocation and membrane blebbing; type: cell-based; conditions: 2µM, 2 hours, confocal, λexc 458 nm (Fig. 5)
Procedure: One-photon epifluorescence and confocal images were obtained using a SP2 confocal microscope (Leica MicroSystem) equipped with an incubation chamber (37°C, CO2 5%). Excitation and emission filters for epifluorescence were 450-490 nm and 515-700 nm, respectively. A continuous laser line (458 nm) was used for excitation in the confocal mode.
The photo-induced nuclear translocation and membrane blebbing were next assessed using confocal fluorescence microscopy [λexc = 458 nm; emission slit settings: 560-720nm and 530-690nm for TP2Py and TP3Bzim, respectively] under experimental conditions similar to those described in experiment 1 for epifluorescence experiments. The corresponding transmission images illustrating the concomitant membrane blebbing are shown below the confocal fluorescence images. Living MCF7 cells were incubated with 2µM TP3Bzim or TP2Py for 2 hours before observation. As shown in Fig. 5A (TP2Py) and in Fig. 5B (TP3BZim), the results obtained with confocal imaging were similar to those obtained with epifluorescence imaging (experiment 1), with however, some discrepancies in the time courses of event appearance, most likely due to the power of the excitation source which is different between epifluorescence and confocal experiments (see below). […] Based on both criteria (re-localization of the fluorescence signal and the formation of blebs), the deduced fluences were 22 and 40 J/cm^2 for TP2Py and TP3Bzim, respectively. […]
The TP2Py compound at a concentration of 2 µM was first incubated with living MCF-7 cells for 2 hours and then observed with confocal microscope with varying illumination power of the laser source [λ=458 nm; emission slit setting: 560-720 nm]. […] For each condition, the fluorescence intensity in ROIs corresponding to the nucleus was plotted as a function of time (the initial time value, t = 0, represents the first observation) (FIG.7C). Using integration time based on tmax values, light dose values, determined from experiments performed at irradiance of 5.6 or 30 mW/cm^2, were consistent (27.6 and 27 J/cm^2 respectively). These values are in accordance with the above-mentioned value for TP2Py (fluence, 22 J/cm^2 in Fig. 5).
Living MCF-7 cells were treated with varying concentrations of TP2Py for two hours (2µM; 0.2µM and 0.02µM) and observed with a confocal microscope [λexc = 458nm; irradiance 30mW/cm^2, emission slit setting: 560-720nm.] (FIG 8A: 2µM; FIG 8B: 0.2µM; FIGBC: 0.02µM).

HeLa cells [4] = test system: HeLa cells
Procedure: as §1, §2, §3

DNA = conditions: b156 attributes 634 nm to DNA-bound TP2Py in vitro (Allains et al. 2007); cited from earlier work
MCF-7 cells = assay: FITC-conjugated Annexin V staining, flow cytometric analysis (apoptosis); type: cell-based; conditions: proapoptotic controls, no illumination; ActD 1µg/mL; CPT 10µM for 2.5 hours
Procedure: MCF-7 cells were plated in 12-well plates (2.10^5 cells/well) and incubated with 2µM of TP2Py for 2h at 37°C. Under specific conditions (see Fig. 12), cells were further incubated with NAC (1mM) for 30 min, Bapta-AM (20µM) for 3h, or CsA (10µM) for 1h at 37°C. After a time illumination of either 30 or 60 min at […] (Mercury lamp (130W; 380-600nm) + excitation filter centered at 452nm (± 45nm)), cells were gently scraped and pooled with medium floating cells. Cells were individualized in PBS-EDTA (10mM) and stained as described by the manufacturer (Roche, Germany). Briefly, the cell pellet was re-suspended in 500µl Annexin V-HEPES solution (10 mM HEPES-NaOH, pH 7.4, 140mM NaCl, 5mM CaCl2) and incubated on ice for 30 min in the dark. Cells were then washed in ice-cold HEPES buffer before analysis. Fluorescence signals of fluorescently labelled (FITC) Annexin V and TP2Py were measured by a FACSCalibur flow cytometer (Becton-Dickinson, Sunnyvale, CA, USA) using FL1 and FL2 detectors, respectively.
Different experiments are summarized below: • MCF-7 cells treated with 2µM TP2Py for 2 hours and then stained with FITC-conjugated Annexin V immediately (Fig.12A) without light exposure; • MCF-7 cells treated with 2µM TP2Py for 2 hours and then stained with FITC-conjugated Annexin V after a time illumination (Exc, 452 nm) of 30 min (Fig.12B); • MCF-7 cells treated with 2µM TP2Py for 2 hours and then stained with FITC-conjugated Annexin V after a time illumination (Exc, 452 nm) of 60 min (Fig.12C); • control MCF-7 cells treated with DMSO (1%) only and illuminated for 30 min before Annexin V staining (Fig.12D); • control MCF-7 cells treated with 1µg/mL actinomycin D (ActD), no illumination before Annexin V staining (Fig.12E); • control MCF-7 cells treated with camptothecin (CPT, 10µM)) (Fig.12F) for 2.5 hours, no illumination before Annexin V staining; • MCF-7 cells treated during 2 hours with 2µM TP2Py and 10µM cyclosporine A (CsA) and illuminated for 30 min before Annexin V staining (Fig.12G); • MCF-7 cells treated during 2 hours with 2µM TP2Py and 1 mM N-Acetyl cysteine (NAC) and illuminated for 30 min before Annexin V staining (Fig.12H); and • MCF-7 cells treated during 2 hours with 2µM TP2Py and 20µM Bapta-am (Fig.12I) and illuminated for 30 min before Annexin V staining.
The horizontal (FL1-H) and vertical (FL2-H) axes correspond to the fluorescence signal of Annexin V and TP2Py, respectively. The percentage of population with a high mean fluorescence signal is indicated in the corresponding quadrant (top right or bottom right in the presence or absence of TP2Py, respectively).

[5] = in water up to 10 µM; cited from earlier work
[6] = cited from earlier work
[7] = at 630 nm; cited from earlier work

CN(C)c1ccc(C(=C2C=CC(=[N+](C)C)C=C2)c2ccc(N(C)C)cc2)cc1 [CV, crystal violet]
total fluence or light dose [1]: 1.7 J/cm^2

CN(C)c1ccc2nc3ccc(=[N+](C)C)cc-3sc2c1 [MB, methylene blue]
total fluence or light dose [1]: 1.7 J/cm^2

CC(=O)Oc1c(I)cc2c(c1I)Oc1c(cc(I)c(OC(C)=O)c1I)C21OC(=O)c2c(Cl)c(Cl)c(Cl)c(Cl)c21 [RBA, Rose Bengal acetate]
total fluence or light dose [1]: 1.6 J/cm^2

Cn1c(/C=C/c2ccc(N(c3ccc(/C=C/c4n(C)c5ccccc5[n+]4C)cc3)c3ccc(/C=C/c4n(C)c5ccccc5[n+]4C)cc3)cc2)[n+](C)c2ccccc21 [TP3Bzim]
CC50 [2]: > 30 µM | illumination time required for the same TC50 under illumination (HeLa cells [3]; Mercury lamp, filter 452nm): 15 min | corresponding light dose (HeLa cells [3]): 54 J/cm^2 | deduced fluence (re-localization of the fluorescence signal and formation of blebs) (living MCF-7 cells): 40 J/cm^2 | dark toxicity (concentration below which negligible) (HeLa cells [4]): ≥ 50 µM | λmax,emission (DNA): 572 nm

Cn1c(/C=C/c2ccc(N(c3ccccc3)c3ccc(/C=C/c4n(C)c5ccccc5[n+]4C)cc3)cc2)[n+](C)c2ccccc21 [Tp2Bzim]
CC50 [2]: 10 µM

C[n+]1ccccc1/C=C/c1ccc(N(c2ccccc2)c2ccc(/C=C/c3cccc[n+]3C)cc2)cc1 [Tp2Pyo]
CC50 [2]: 20 µM

Cc1c2oc3c(C)ccc(C(=O)N[C@@H]4C(=O)N[C@H](C(C)C)C(=O)N5CCC[C@H]5C(=O)N(C)CC(=O)N(C)[C@@H](C(C)C)C(=O)O[C@@H]4C)c3nc-2c(C(=O)N[C@@H]2C(=O)N[C@H](C(C)C)C(=O)N3CCC[C@H]3C(=O)N(C)CC(=O)N(C)[C@@H](C(C)C)C(=O)O[C@@H]2C)c(N)c1=O [actinomycin D, reference compound] (I: T[dV]P[Sar][NMeV] / II: T[dV]P[Sar][NMeV]; ester I:1-I:C, II:1-II:C; linker I:N-II:N via Actinocin(9to1))
HMFI population (Annexin V positive, TP2Py negative) (MCF-7 cells): 34%

CC[C@@]1(O)C(=O)OCc2c1cc1n(c2=O)Cc2cc3ccccc3nc2-1 [camptothecin, reference compound]
HMFI population (Annexin V positive, TP2Py negative) (MCF-7 cells): 37%

C=Cc1c(C)c2cc3nc(c(CC(=O)O)c4[nH]c(cc5nc(cc1[nH]2)C(C)=C5CC)c(C)c4C(=O)O)[C@@H](CCC(=O)O)[C@@H]3C [chlorin e6]
quantum yield [5]: 0.008-0.01 | two-photon cross-section ([6]; at 800 nm): 29 GM

Photofrin®
extinction coefficient [7]: 3200 M⁻¹ cm⁻¹ | two-photon cross-section ([6]; at 800 nm): 10 GM | two-photon cross-section ([6]; at 900 nm): 5 GM
